According to US11136351B2 (priority 2016, dated 2021):
Structures can show the parent of a compound that is named as a salt. Where two headings read alike, the source gives them in different places.

Experiments:
[1] = tested on: HVA calcium channels in rat DRG neurons; assay type: cell-based
[2] = tested on: mouse HVA Ca^2+ channel; assay type: cell-based; details: 50 μM
[3] = target: T1, human α9α10 nAChR (Homo sapiens, UniProt Q9GZZ6+Q9UGM1); assay type: cell-based; details: 1 μM
T1 construct: expressed in transfected cells; host or cells: Xenopus laevis oocytes

[4] = target: α7 nAChRs (Homo sapiens, UniProt P36544); details: cited from earlier work
[5] = target: human α9α10 nAChRs (Homo sapiens, UniProt Q9GZZ6+Q9UGM1); details: cited from earlier work
[6] = target: rat α9α10 nAChRs (Rattus norvegicus, UniProt P43144+Q9JLB5); details: cited from earlier work
rat α9α10 nAChRs, sequence (P43144 26-479 limits assumed): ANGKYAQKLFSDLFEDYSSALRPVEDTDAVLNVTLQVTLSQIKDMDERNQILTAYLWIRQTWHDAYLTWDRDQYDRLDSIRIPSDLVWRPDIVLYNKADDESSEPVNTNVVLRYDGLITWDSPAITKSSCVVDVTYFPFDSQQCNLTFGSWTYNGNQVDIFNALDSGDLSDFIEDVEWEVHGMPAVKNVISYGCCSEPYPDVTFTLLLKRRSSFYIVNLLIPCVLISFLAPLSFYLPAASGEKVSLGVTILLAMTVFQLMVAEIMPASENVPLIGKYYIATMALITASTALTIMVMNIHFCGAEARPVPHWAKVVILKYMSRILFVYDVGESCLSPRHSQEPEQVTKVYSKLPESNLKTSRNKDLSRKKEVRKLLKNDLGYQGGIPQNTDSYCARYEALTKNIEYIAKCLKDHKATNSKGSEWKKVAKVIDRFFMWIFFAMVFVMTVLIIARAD
rat α9α10 nAChRs, sequence (Q9JLB5 25-447 limits assumed): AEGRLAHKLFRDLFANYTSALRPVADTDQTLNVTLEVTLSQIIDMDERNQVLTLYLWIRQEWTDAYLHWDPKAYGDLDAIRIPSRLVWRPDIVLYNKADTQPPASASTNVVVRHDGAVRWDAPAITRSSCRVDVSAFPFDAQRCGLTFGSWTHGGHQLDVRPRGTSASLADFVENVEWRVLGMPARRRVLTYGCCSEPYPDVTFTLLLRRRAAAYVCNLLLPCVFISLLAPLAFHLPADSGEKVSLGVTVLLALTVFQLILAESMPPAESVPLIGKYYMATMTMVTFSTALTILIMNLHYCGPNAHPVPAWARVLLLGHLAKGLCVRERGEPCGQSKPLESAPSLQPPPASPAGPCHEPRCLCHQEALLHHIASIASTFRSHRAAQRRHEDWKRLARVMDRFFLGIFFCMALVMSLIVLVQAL

human α9α10 nAChRs, sequence (Q9UGM1 26-479 limits assumed): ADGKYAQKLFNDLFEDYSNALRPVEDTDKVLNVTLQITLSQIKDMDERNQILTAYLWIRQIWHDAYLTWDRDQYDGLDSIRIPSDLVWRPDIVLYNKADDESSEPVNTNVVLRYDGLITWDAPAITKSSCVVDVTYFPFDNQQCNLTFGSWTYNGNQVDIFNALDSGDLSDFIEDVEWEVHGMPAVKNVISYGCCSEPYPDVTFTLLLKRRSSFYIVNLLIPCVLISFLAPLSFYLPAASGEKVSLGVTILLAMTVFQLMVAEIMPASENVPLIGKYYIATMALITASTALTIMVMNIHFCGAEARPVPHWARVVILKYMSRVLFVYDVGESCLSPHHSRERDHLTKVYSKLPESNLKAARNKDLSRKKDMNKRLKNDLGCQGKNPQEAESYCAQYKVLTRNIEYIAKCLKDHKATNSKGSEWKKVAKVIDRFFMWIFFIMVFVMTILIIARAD
human α9α10 nAChRs, sequence (Q9GZZ6 25-450): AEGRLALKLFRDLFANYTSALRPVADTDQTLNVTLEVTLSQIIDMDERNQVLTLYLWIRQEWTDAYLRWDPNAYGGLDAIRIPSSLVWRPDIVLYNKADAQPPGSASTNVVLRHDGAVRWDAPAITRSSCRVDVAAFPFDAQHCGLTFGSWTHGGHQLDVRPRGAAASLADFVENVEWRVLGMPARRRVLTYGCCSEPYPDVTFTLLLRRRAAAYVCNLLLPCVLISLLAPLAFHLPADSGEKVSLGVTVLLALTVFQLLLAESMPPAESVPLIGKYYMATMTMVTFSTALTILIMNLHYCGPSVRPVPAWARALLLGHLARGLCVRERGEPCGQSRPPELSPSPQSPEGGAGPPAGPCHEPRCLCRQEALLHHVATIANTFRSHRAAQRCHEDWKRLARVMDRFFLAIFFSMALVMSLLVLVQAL
T1 sequence (Q9UGM1 26-479 limits assumed): as the sequence (Q9UGM1 26-479 limits assumed) above
T1 sequence (Q9GZZ6 25-450): as the sequence (Q9GZZ6 25-450) above
α7 nAChRs, sequence (P36544 23-502 limits assumed): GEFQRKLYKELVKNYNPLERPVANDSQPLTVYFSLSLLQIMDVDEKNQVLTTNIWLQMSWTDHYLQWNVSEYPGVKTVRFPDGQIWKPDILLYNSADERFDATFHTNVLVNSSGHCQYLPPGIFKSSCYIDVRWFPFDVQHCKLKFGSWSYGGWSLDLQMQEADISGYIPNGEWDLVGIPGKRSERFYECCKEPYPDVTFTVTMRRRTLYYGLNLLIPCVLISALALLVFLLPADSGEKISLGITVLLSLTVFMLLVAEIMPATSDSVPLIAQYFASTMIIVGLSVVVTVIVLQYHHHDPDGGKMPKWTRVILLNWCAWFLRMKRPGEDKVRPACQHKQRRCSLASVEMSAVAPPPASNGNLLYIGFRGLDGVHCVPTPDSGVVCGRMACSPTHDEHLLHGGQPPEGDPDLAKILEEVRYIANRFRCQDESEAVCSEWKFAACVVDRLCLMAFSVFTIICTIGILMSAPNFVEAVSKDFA

Molecule | reversibility of IBa inhibition [1] | IBa I/Icontrol ± SEM (n) ([1]; 50 μM) | fraction of total IBa suppressed ([1]; 50 μM) [%] | rat HVA Ca^2+ channel I/Icontrol ± SEM (n) ([1]; 50 μM) | mouse HVA Ca^2+ channel I/Icontrol ± SEM (n) [2] | peak ICa inhibition [2] [%] | inhibition of HVA calcium currents by globular, ribbon and beads isomers [1] | rat HVA Ca^2+ channel I/Icontrol ± SEM (n) ([1]; 1 μM) | human α9α10 nAChR I/Icontrol ± SEM (n) [3] | IC50 [4] [nM] | IC50 [5] [nM] | IC50 [6] [nM]
NC[C@H](CC(=O)O)c1ccc(Cl)cc1 [Baclofen, R-(+)-baclofen hydrochloride] | reversible on washout | 0.64 ± 0.018 (36) | ~35 | 0.64 ± 0.01 (33) | 0.60 ± 0.03 (11) | 41.5±2.7 |  |  |  |  |  | 
Vc1.1 |  |  |  |  |  |  | found to inhibit HVA calcium currents | 0.73 ± 0.03 (4) | 0.57 ± 0.020 (17) | ~7100 | 765 | 64
